From patent publication US8399662B2, “O-acyloxime derivatives, preparation method thereof, and pharmaceutical composition containing the same for prevention and treatment of cardiovascular disease” (Korea Research Institute of Bioscience and Biotechnology, priority 2004, dated 2013)

Legend:
Lp-PLA2 = molecular target: T1, Lp-PLA2 (Homo sapiens, UniProt Q13093); experiment: Measurement of Lp-PLA2 (PAF-AH) activity using [3H]PAF substrate and human LDL as enzyme source; assay type: biochemical; conditions: Lp-PLA2 from human LDL, average of two test results, read-out: Inhibition rate at 25 μM
T1 construct: LDL was isolated from the plasma by discontinuous density gradient ultra centrifugation; from tissue; host or cells: LDL fraction of human blood plasma from normal lipidemic volunteers
T1 sequence (Q13093 22-441): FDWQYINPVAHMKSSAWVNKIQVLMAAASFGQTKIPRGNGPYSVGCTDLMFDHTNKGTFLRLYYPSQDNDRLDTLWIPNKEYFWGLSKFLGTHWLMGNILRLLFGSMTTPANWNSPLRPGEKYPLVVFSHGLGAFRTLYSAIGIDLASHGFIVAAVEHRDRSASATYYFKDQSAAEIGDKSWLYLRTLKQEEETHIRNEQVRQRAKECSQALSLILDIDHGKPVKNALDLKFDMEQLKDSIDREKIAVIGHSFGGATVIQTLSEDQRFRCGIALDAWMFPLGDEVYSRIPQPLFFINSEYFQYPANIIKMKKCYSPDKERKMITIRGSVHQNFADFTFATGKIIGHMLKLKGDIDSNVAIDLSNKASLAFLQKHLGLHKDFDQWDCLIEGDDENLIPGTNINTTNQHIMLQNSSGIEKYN
Procedure: Blood was collected from normal lipidemic volunteers. EDTA was used as anticoagulant (1.5 mg/ml of blood). […] LDL was isolated from the plasma by discontinuous density gradient ultra centrifugation. Briefly, the plasma was centrifuged at 100,000×g at 4° C. for 20 hours. […] The LDL fraction in the top of the tube was collected and dialyzed overnight against three changes of phosphate buffer (pH 7.4), containing NaCl (150 mM), in the dark at 4° C. to remove NaBr and EDTA. The LDL in PBS was stored at 4° C. and used within 4 weeks. The purity of the fraction was confirmed by agarose gel electrophoresis and SDS-PAGE. Concentration of LDL protein was determined using bovine serum albumin (BSA) as a standard.
Lp-PLA2, the enzyme is also known as platelet-activating factor acetylhydrolase (PAF-AH), activity was measured using [^3H]PAF as a substrate. […] The reaction mixture, containing 20 μL of diluted human LDL (Lp-PLA2 source, 4-5 μg protein), 120 μL of PBS-EDTA, and 20 μL of test sample, was preincubated at 37° C. for 15 min. The reaction was initiated by the addition of 40 μL micelle substrate (0.1 μCi, final conc. 80 μM PAF) to measure initial rates of PAF-AH activity. […] The raw counts were corrected for background using a nonenzyme-containing blank and were expressed as nanomoles of PAF degraded per hour per milligram of protein.

in vivo = conditions: both, ICR, mouse, in vivo, po
Procedure: (§1) Specific pathogens free ICR mice of 4 weeks old (12 females and 12 males; 3 females and 3 males/dosage group) were raised in an animal chamber controlled with the temperature of 22±3° C., humidity of 55±10%, and illumination of 12L/12D cycle. The mice were acclimated for a week before the test. Feed for a test animal (CJ Corp., for mouse and rat) and water were supplied after sterilization and taken by the mice without any restriction.
(§2) The amount of 0.04 ml (100 mg/kg), 0.2 ml (500 mg/kg), and 0.4 ml (1,000 mg/kg) per mouse weight of 20 g was dosed individually to the mice by oral administration. The samples were dosed only one time, and adverse effect and mortality were observed during 7 days after the dosing as follows.
(§3) Additionally, on seventh day after the administration, the animals were sacrificed and dissected to examine internal organs with naked eye. Weight loss due to (E)-3,4-di-fluorobenzaldehyde O-benzoyloxime or (E)-2,3-di-fluorobenzaldehyde O-morpholine-4-carbonyloxime was observed by measuring weight changes at the intervals of 1 day since the dosage.

ICR mice = experiment: in vivo; conditions: single oral dose up to 1,000 mg/kg, ICR mice, 7 days
Procedure: as §1, §2, §3

SMILES | inhibition at 25 µM (Lp-PLA2) [%] | LD50 at 7 days (in vivo) [mg/kg] | toxicity (clinical symptoms, weight change, blood test, biochemical test of blood, necropsy) (ICR mice)
O=C(O/N=C(\OC(=O)c1ccccc1)c1ccccc1)c1ccccc1 [Example 16, (E)-1-benzoic acid-benzaldehyde O-benzoyloxime] | 29 |  | 
O=C(O/N=C/c1ccc(F)c(F)c1)c1ccccc1 [Example 21, (E)-3,4-di-fluorobenzaldehyde O-benzoyloxime] |  | > 1000 | 
O=C(O/N=C/c1cccc(F)c1F)N1CCOCC1 [Example 30, (E)-2,3-di-fluorobenzaldehyde O-morpholine-4-carbonyloxime] |  | > 1000 | did not show any toxicity
